For one molecule, Km results are on record in publication PMC8709206, “Study on Purification and Characterization of Polyphenol Oxidase from Acetes chinensis” (Molecules, 2021).

The test relates to T1, Acetes chinensis PPO (polyphenol oxidase).
T1 construct: native enzyme purified from fresh shrimp (ammonium sulphate, DEAE, Phenyl-Sepharose HP); single SDS-PAGE band about 75 kDa
Description: absorbance at […] nm, Lineweaver-Burk. The test is classed as biochemical. To be noted: 0.05 mol/L phosphate buffer pH 7.2, 40 °C, 40 min; Figure 2 caption names pyrocatechol, text names L-Dopa.

The term Km denotes the substrate concentration at which the rate is half of its maximum. With `N[C@@H](Cc1ccc(O)c(O)c1)C(=O)O` [L-dopa], the Km amounted to 846 µM.
